Assay in all cases: relative viability (nuclei count vs DMSO), 5 days (fraction); higher = more cells survive
Compound in the assay “Quizartinib + Linsitinib”: CC(C)(C)c1cc(NC(=O)Nc2ccc(-c3cn4c(n3)sc3cc(OCCN5CCOCC5)ccc34)cc2)no1 [Quizartinib] + C[C@]1(O)C[C@@H](c2nc(-c3ccc4ccc(-c5ccccc5)nc4c3)c3c(N)nccn32)C1 [Linsitinib] (partner 1 µM)
A digest of the protocol: (§1)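 Lung cancer cell lines were pin-tool dosed in 1536-well plates on the day after seeding, with either a lone drug or a fixed anchor-drug dose plus five library-drug doses (not always all listed) in √10 steps. Nuclei were counted on 4× images after 5 days. Relative viability is the ratio of treated-well to vehicle-well nuclei counts, with each value a median of duplicate plates.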

Compound in the assay “Quizartinib + Dasatinib”: CC(C)(C)c1cc(NC(=O)Nc2ccc(-c3cn4c(n3)sc3cc(OCCN5CCOCC5)ccc34)cc2)no1 [Quizartinib] + Cc1nc(Nc2ncc(C(=O)Nc3c(C)cccc3Cl)s2)cc(N2CCN(CCO)CC2)n1 [Dasatinib] (partner 0.075 µM)
In a few lines:
as §1

Compound in the assay “Quizartinib + Pemetrexed”: CC(C)(C)c1cc(NC(=O)Nc2ccc(-c3cn4c(n3)sc3cc(OCCN5CCOCC5)ccc34)cc2)no1 [Quizartinib] + Nc1nc2[nH]cc(CCc3ccc(C(=O)N[C@@H](CCC(=O)O)C(=O)O)cc3)c2c(=O)[nH]1 [Pemetrexed] (partner 0.2 µM)
A digest of the protocol:
as §1

Compound in the assay “YM155 + Lapatinib”: COCC[n+]1c2c(n(Cc3cnccn3)c1C)C(=O)c1ccccc1C2=O [YM155] + CS(=O)(=O)CCNCc1ccc(-c2ccc3ncnc(Nc4ccc(OCc5cccc(F)c5)c(Cl)c4)c3c2)o1 [Lapatinib] (partner 2 µM)
In a few lines: as §1

With SK-LU-1, the relative viability was found to be 0.941 with Quizartinib + Linsitinib (first compound 0.001 µM); 1.07 with Quizartinib + Linsitinib (first compound 0.003162 µM); 1.31 with Quizartinib + Linsitinib (first compound 0.01 µM); 1.11 with Quizartinib + Linsitinib (first compound 0.03162 µM); 0.906 in the assay with Quizartinib + Linsitinib (first compound 0.1 µM); 0.178 with Quizartinib + Dasatinib (first compound 0.001 µM). Also, the relative viability was determined as 0.169 with Quizartinib + Dasatinib (first compound 0.003162 µM); 0.204 with Quizartinib + Dasatinib (first compound 0.01 µM); 0.183 in the assay with Quizartinib + Dasatinib (first compound 0.03162 µM); 0.232 with Quizartinib + Dasatinib (first compound 0.1 µM); 0.875 in the assay with Quizartinib + Pemetrexed (first compound 0.001 µM); 0.912 in the assay with Quizartinib + Pemetrexed (first compound 0.003162 µM). For the same cell line, the relative viability with Quizartinib + Pemetrexed (first compound 0.01 µM) came out at 1.08; with Quizartinib + Pemetrexed (first compound 0.03162 µM), 0.975; with Quizartinib + Pemetrexed (first compound 0.1 µM), 0.993; with YM155 + Lapatinib (first compound 0.002 µM), 0.835; with YM155 + Lapatinib (first compound 0.006325 µM) it was 0.85; with YM155 + Lapatinib (first compound 0.02 µM), 0.971. In addition, the relative viability with YM155 + Lapatinib (first compound 0.06325 µM) worked out at 0.653.
As for SK-MES-1, the relative viability was 1.03 in the assay with Quizartinib + Linsitinib (first compound 0.001 µM); 1 in the assay with Quizartinib + Linsitinib (first compound 0.003162 µM); 1.14 in the assay with Quizartinib + Linsitinib (first compound 0.01 µM); 0.975 with Quizartinib + Linsitinib (first compound 0.03162 µM); 0.996 in the assay with Quizartinib + Linsitinib (first compound 0.1 µM); 0.337 with Quizartinib + Dasatinib (first compound 0.001 µM). Also, the relative viability in the assay with Quizartinib + Dasatinib (first compound 0.003162 µM) stood at 0.354; with Quizartinib + Dasatinib (first compound 0.01 µM), 0.404; with Quizartinib + Dasatinib (first compound 0.1 µM), 0.273; in the assay with Quizartinib + Pemetrexed (first compound 0.001 µM), 0.939; with Quizartinib + Pemetrexed (first compound 0.003162 µM) it was 0.904; with Quizartinib + Pemetrexed (first compound 0.01 µM) it was 0.981. Further, the relative viability with Quizartinib + Pemetrexed (first compound 0.03162 µM) was 0.563; with Quizartinib + Pemetrexed (first compound 0.1 µM) it was 0.817; with YM155 + Lapatinib (first compound 0.002 µM), 0.468; with YM155 + Lapatinib (first compound 0.006325 µM), 0.476; with YM155 + Lapatinib (first compound 0.02 µM), 0.442; with YM155 + Lapatinib (first compound 0.06325 µM) it was 0.473.
With SW 1573, the relative viability was determined as 0.738 with Quizartinib + Linsitinib (first compound 0.001 µM); 0.691 with Quizartinib + Linsitinib (first compound 0.003162 µM); 0.81 with Quizartinib + Linsitinib (first compound 0.01 µM); 0.642 with Quizartinib + Linsitinib (first compound 0.03162 µM); 0.8 with Quizartinib + Linsitinib (first compound 0.1 µM); 0.417 with Quizartinib + Dasatinib (first compound 0.001 µM). The relative viability in the assay with Quizartinib + Dasatinib (first compound 0.003162 µM) was found to be 0.481; in the assay with Quizartinib + Dasatinib (first compound 0.01 µM), 0.561; in the assay with Quizartinib + Dasatinib (first compound 0.1 µM), 0.76; in the assay with Quizartinib + Pemetrexed (first compound 0.001 µM), 0.872; in the assay with Quizartinib + Pemetrexed (first compound 0.003162 µM), 0.75; with Quizartinib + Pemetrexed (first compound 0.01 µM) it was 0.826. Further, the relative viability with Quizartinib + Pemetrexed (first compound 0.1 µM) worked out at 0.848; with YM155 + Lapatinib (first compound 0.002 µM) it was 1.1; with YM155 + Lapatinib (first compound 0.006325 µM) it was 1.01; in the assay with YM155 + Lapatinib (first compound 0.02 µM) it was 1.21; in the assay with YM155 + Lapatinib (first compound 0.06325 µM) it was 0.858.
Take UMC-11: the relative viability with Quizartinib + Linsitinib (first compound 0.001 µM) was 1.05; in the assay with Quizartinib + Linsitinib (first compound 0.003162 µM), 0.964; in the assay with Quizartinib + Linsitinib (first compound 0.01 µM), 1.06; with Quizartinib + Linsitinib (first compound 0.03162 µM) it was 0.914; with Quizartinib + Linsitinib (first compound 0.1 µM), 1.02; with Quizartinib + Dasatinib (first compound 0.003162 µM) it was 0.386. In addition, the relative viability in the assay with Quizartinib + Dasatinib (first compound 0.01 µM) is 0.487; with Quizartinib + Dasatinib (first compound 0.03162 µM), 0.434; with Quizartinib + Dasatinib (first compound 0.1 µM), 0.454; with Quizartinib + Pemetrexed (first compound 0.001 µM), 0.676; in the assay with Quizartinib + Pemetrexed (first compound 0.003162 µM), 0.787; in the assay with Quizartinib + Pemetrexed (first compound 0.01 µM), 0.864. Besides, the relative viability with Quizartinib + Pemetrexed (first compound 0.03162 µM) was found to be 0.771; in the assay with Quizartinib + Pemetrexed (first compound 0.1 µM), 0.818; with YM155 + Lapatinib (first compound 0.002 µM) it was 0.846; with YM155 + Lapatinib (first compound 0.006325 µM) it was 0.964; in the assay with YM155 + Lapatinib (first compound 0.02 µM), 0.994; in the assay with YM155 + Lapatinib (first compound 0.06325 µM) it was 0.93.

The record behind these values is the supplement of paper PMC10307832.
